Rmax, EC50 and IC50 data for 7 molecules are collected here from ChEMBL document CHEMBL1145159 (J Med Chem, 2005).

The target in assay [1] is Neuronal acetylcholine receptor subunit alpha-7 (Rattus norvegicus) (UniProt Q05941). Description: (§1) Maximal response against Nicotinic acetylcholine receptor alpha 7.
Assay [2] has as its target T1, Neuronal acetylcholine receptor; alpha4/beta4 (Homo sapiens, UniProt P30926+P43681). Description: Effective concentration against Nicotinic acetylcholine receptor alpha4-beta4. It is filed as protein-complex assay.
Assay [3] deals with T2, Neuronal acetylcholine receptor; alpha3/beta4 (Homo sapiens, UniProt P30926+P32297). Kind of assay: Effective concentration against Nicotinic acetylcholine receptor alpha3-beta4. It is filed as protein-complex assay.
T2 sequence (P30926 whole entry): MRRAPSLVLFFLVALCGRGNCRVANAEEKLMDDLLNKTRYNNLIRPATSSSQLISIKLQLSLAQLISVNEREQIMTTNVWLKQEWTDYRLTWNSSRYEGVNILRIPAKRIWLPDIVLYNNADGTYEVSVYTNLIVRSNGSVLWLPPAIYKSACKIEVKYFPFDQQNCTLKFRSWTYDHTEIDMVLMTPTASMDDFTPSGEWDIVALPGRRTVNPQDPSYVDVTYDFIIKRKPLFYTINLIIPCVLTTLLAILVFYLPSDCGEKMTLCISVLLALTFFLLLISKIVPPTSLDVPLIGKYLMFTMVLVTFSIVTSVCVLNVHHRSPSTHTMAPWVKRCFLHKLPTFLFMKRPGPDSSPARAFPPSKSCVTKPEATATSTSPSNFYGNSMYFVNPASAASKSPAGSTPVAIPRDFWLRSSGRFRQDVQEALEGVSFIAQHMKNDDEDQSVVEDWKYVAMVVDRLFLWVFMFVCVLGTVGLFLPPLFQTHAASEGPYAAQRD
T2 sequence (P32297 whole entry): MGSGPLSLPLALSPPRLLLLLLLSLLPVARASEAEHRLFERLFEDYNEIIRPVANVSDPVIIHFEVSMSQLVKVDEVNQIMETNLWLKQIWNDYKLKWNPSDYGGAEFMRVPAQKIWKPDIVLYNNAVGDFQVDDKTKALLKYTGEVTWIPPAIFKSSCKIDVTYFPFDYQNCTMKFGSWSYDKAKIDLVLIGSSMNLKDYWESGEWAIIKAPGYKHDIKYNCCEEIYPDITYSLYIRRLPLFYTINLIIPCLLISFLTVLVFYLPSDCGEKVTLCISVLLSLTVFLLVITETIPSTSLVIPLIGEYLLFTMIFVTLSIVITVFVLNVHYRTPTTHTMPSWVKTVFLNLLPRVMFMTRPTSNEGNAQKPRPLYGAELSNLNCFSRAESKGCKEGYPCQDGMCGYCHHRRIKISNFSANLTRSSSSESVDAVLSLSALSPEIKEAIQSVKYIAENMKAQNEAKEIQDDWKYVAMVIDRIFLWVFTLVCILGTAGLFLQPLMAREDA
Assay [4] addresses T3, Neuronal acetylcholine receptor; alpha4/beta2 (Homo sapiens, UniProt P17787+P43681). Description: Effective concentration against Nicotinic acetylcholine receptor alpha4-beta2. Format: protein-complex assay.
Assay [5] deals with T4, Neuronal acetylcholine receptor; alpha2/beta4 (Homo sapiens, UniProt P30926+Q15822). Kind of assay: Effective concentration against Nicotinic acetylcholine receptor alpha2-beta4. Format: protein-complex assay.
T4 sequence (P30926 whole entry): as the sequence (P30926 whole entry) above
T4 sequence (Q15822 whole entry): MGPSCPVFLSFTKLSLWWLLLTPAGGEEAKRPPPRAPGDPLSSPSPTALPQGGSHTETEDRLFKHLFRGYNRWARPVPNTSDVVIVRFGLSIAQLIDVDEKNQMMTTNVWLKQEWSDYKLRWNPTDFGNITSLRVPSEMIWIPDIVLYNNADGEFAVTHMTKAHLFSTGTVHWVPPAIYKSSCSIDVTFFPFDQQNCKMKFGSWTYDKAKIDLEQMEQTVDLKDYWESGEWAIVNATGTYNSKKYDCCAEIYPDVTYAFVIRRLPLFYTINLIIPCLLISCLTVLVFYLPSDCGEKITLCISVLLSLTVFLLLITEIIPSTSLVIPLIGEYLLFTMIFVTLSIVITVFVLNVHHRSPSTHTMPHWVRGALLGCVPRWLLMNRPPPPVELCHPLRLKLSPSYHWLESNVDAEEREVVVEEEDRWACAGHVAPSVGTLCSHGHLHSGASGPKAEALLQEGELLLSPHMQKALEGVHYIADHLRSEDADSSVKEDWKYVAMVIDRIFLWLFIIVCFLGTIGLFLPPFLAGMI
Assay [6] has as its target T5, Neuronal acetylcholine receptor; alpha3/beta2 (Homo sapiens, UniProt P17787+P32297). Kind of assay: Effective concentration against Nicotinic acetylcholine receptor alpha3-beta2. It is filed as protein-complex assay.
For assay [7], the target named is T6, Neuronal acetylcholine receptor; alpha4/beta2 (Rattus norvegicus) (UniProt P09483+P12390). Kind of assay: Maximal response against rat neural Nicotinic acetylcholine receptor alpha4-beta2. It is filed as protein-complex assay.
Assay [8] concerns the target T7, Neuronal acetylcholine receptor; alpha3/beta4 (Rattus norvegicus) (UniProt P04757+P12392). Description: Maximal response against rat neural Nicotinic acetylcholine receptor alpha3-beta4. Format: protein-complex assay.
The target of assay [9] is Neuronal acetylcholine receptor subunit alpha-7 (Rattus norvegicus) (UniProt Q05941). Description: Maximal response against rat neural Nicotinic acetylcholine receptor alpha 7.
Assay [10] addresses Neuronal acetylcholine receptor; alpha3/beta2 (Rattus norvegicus) (UniProt P04757+P12390). Description: Maximal response against rat neural Nicotinic acetylcholine receptor alpha3-beta2. It is filed as protein-complex assay.
The target of assay [11] is T1, Neuronal acetylcholine receptor; alpha4/beta4. Description: Maximal response against Nicotinic acetylcholine receptor alpha4-beta4. It is filed as protein-complex assay.
The nature of assay [12]: Effective concentration against Nicotinic acetylcholine receptor alpha4-beta2 expressed in xenopus oocytes. It is filed as cell-based. Particulars: oocyte.
A short description of assay [13]: Effective concentration against Nicotinic acetylcholine receptor alpha4-beta4 expressed in xenopus oocytes. Format: cell-based. Particulars: oocyte.
For assay [14], the target named is T5, Neuronal acetylcholine receptor; alpha3/beta2. Description: Maximal response against Nicotinic acetylcholine receptor alpha3-beta2 in [Ca2+] permeability and [Ca2+] modulation. Format: functional.
The target in assay [15] is T3, Neuronal acetylcholine receptor; alpha4/beta2. Kind of assay: Maximal response against Nicotinic acetylcholine receptor alpha4-beta2. It is filed as protein-complex assay.
In assay [16] the target is T8, Neuronal acetylcholine receptor subunit alpha-7 (Homo sapiens, UniProt P36544). Kind of assay: Effective concentration against Nicotinic acetylcholine receptor alpha 7 expressed in xenopus oocytes. It is filed as cell-based, Xenopus laevis, Oocyte.
T8 sequence (P36544 whole entry): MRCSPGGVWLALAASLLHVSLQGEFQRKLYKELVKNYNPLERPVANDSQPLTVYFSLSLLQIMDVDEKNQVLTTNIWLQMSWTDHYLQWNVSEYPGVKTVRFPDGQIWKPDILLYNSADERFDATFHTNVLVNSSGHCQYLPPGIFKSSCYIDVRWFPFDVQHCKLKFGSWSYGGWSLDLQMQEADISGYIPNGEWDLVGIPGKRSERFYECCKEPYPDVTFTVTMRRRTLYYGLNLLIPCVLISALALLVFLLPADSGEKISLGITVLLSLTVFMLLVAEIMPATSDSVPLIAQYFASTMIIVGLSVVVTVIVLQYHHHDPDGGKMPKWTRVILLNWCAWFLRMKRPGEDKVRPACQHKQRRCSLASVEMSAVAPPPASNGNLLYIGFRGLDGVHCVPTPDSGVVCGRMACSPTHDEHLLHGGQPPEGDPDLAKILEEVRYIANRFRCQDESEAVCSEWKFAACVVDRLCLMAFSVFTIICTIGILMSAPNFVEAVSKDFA
The target in assay [17] is T2, Neuronal acetylcholine receptor; alpha3/beta4. Description: Maximal response against Nicotinic acetylcholine receptor alpha3-beta4. It is filed as protein-complex assay.
The nature of assay [18]: Effective concentration against Nicotinic acetylcholine receptor alpha2-beta4 expressed in xenopus oocytes. Format: cell-based. Particulars: oocyte.
Assay [19] addresses T4, Neuronal acetylcholine receptor; alpha2/beta4. Description: Maximal response against Nicotinic acetylcholine receptor alpha2-beta4. It is filed as protein-complex assay.
For assay [20], the target named is T2, Neuronal acetylcholine receptor; alpha3/beta4. Kind of assay: Maximal response against Nicotinic acetylcholine receptor alpha3-beta4 in [Ca2+] permeability and [Ca2+] modulation. Format: protein-complex assay.
Assay [21] addresses T5, Neuronal acetylcholine receptor; alpha3/beta2. Description: Maximal response against Nicotinic acetylcholine receptor alpha3-beta2. It is filed as protein-complex assay.
A short description of assay [22]: Effective concentration against Nicotinic acetylcholine receptor alpha3-beta4 expressed in xenopus oocytes. It is filed as cell-based. Particulars: oocyte.
Assay [23] deals with T5, Neuronal acetylcholine receptor; alpha3/beta2. Kind of assay: Effective concentration against Nicotinic acetylcholine receptor alpha3-beta2 expressed in xenopus oocytes. Format: cell-based, Oocyte.
The target of assay [24] is T8, Neuronal acetylcholine receptor subunit alpha-7. The assay is described as §1.
Assay [25] concerns the target T5, Neuronal acetylcholine receptor; alpha3/beta2. Kind of assay: Maximal response against Nicotinic acetylcholine receptor alpha3-beta2 expressed in HEK293 cells. Format: cell-based.
Assay [26] addresses T3, Neuronal acetylcholine receptor; alpha4/beta2. Description: Maximal response against Nicotinic acetylcholine receptor alpha4-beta2 expressed in HEK293 cells. Format: cell-based.
Assay [27] deals with Neuronal acetylcholine receptor subunit alpha-3 (Homo sapiens) (UniProt P32297). Kind of assay: Maximal response against [Ca2+] permeability and [Ca2+] modulation of alpha-3 nicotinic receptor.
Sequence of Neuronal acetylcholine receptor subunit alpha-3 (Homo sapiens) (P32297 whole entry): as the sequence (P32297 whole entry) above
Assay [28] deals with T2, Neuronal acetylcholine receptor; alpha3/beta4. Kind of assay: Maximal response against Nicotinic acetylcholine receptor alpha3-beta4 expressed in HEK293 cells. It is filed as cell-based.
Assay [29] deals with Neuronal acetylcholine receptor; alpha3/beta2 (Rattus norvegicus, UniProt P04757+P12390). Kind of assay: Effective concentration against Nicotinic acetylcholine receptor alpha3-beta2 in rat mid brain slices.
Sequence of Neuronal acetylcholine receptor; alpha3/beta2 (Rattus norvegicus, UniProt P04757+P12390) (P04757 whole entry): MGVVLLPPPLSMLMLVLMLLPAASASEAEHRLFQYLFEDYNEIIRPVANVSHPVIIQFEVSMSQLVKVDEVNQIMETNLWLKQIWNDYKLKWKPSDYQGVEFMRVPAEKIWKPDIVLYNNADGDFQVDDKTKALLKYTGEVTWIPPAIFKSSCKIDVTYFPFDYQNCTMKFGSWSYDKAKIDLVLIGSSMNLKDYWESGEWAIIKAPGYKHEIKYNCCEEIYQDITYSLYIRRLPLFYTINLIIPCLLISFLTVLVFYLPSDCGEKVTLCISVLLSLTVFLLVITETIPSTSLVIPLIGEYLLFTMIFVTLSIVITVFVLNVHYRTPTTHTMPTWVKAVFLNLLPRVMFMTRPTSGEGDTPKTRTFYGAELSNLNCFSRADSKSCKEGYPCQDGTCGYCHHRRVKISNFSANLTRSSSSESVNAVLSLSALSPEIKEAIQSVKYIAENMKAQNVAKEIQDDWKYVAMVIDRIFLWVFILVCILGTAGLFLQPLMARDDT
Sequence of Neuronal acetylcholine receptor; alpha3/beta2 (Rattus norvegicus, UniProt P04757+P12390) (P12390 whole entry): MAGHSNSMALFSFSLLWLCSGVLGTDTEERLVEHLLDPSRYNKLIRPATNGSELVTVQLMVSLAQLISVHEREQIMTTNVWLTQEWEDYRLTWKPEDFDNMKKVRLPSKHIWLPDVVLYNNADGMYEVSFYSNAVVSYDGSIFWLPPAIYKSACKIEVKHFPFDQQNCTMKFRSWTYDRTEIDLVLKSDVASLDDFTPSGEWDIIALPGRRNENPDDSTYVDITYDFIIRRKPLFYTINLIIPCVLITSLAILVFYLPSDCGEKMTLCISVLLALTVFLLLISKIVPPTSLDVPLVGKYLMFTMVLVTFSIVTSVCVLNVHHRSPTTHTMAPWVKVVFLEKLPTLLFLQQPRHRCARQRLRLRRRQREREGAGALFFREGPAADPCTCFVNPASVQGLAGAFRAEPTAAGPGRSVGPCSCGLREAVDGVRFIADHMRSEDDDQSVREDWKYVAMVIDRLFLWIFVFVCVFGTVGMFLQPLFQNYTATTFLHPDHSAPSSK
Assay [30] addresses Neuronal acetylcholine receptor; alpha2/beta4 (Rattus norvegicus) (UniProt P12389+P12392). Kind of assay: Maximal response against Nicotinic acetylcholine receptor alpha2-beta4 in rat mid brain slices.
Assay [31] deals with T8, Neuronal acetylcholine receptor subunit alpha-7. Kind of assay: Effective concentration against Nicotinic acetylcholine receptor alpha 7.
In assay [32] the target is Neuronal acetylcholine receptor; alpha4/beta4 (Rattus norvegicus) (UniProt P09483+P12392). Kind of assay: Maximal response against Nicotinic acetylcholine receptor alpha4-beta4 in rat mid brain slices.
In assay [33] the target is Neuronal acetylcholine receptor subunit alpha-7 (Rattus norvegicus, UniProt Q05941). Description: Effective concentration against Nicotinic acetylcholine receptor alpha 7 in rat mid brain slices.
Sequence of Neuronal acetylcholine receptor subunit alpha-7 (Rattus norvegicus, UniProt Q05941) (Q05941 whole entry): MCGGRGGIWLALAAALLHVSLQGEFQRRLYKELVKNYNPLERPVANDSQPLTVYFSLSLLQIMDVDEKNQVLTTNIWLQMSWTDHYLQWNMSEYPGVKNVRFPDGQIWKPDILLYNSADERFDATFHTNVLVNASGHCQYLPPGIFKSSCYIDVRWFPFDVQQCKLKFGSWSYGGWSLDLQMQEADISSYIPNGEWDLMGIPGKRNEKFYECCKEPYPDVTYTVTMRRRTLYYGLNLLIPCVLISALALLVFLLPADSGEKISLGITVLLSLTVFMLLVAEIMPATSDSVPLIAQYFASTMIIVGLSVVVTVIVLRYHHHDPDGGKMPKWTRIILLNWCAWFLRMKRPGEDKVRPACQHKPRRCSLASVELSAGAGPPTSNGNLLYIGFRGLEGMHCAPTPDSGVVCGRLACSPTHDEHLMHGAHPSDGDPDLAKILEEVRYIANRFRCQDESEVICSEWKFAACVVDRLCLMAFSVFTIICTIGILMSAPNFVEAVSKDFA
Assay [34] addresses T6, Neuronal acetylcholine receptor; alpha4/beta2 (Rattus norvegicus). Kind of assay: Maximal response against Nicotinic acetylcholine receptor alpha4-beta2 in rat mid brain slices.
The target of assay [35] is T7, Neuronal acetylcholine receptor; alpha3/beta4 (Rattus norvegicus). Kind of assay: Maximal response against Nicotinic acetylcholine receptor alpha3-beta4 in rat mid brain slices.
In assay [36] the target is T4, Neuronal acetylcholine receptor; alpha2/beta4. Description: Maximal response against Nicotinic acetylcholine receptor alpha2-beta4 expressed in HEK293 cells. It is filed as cell-based.
For assay [37], the target named is T5, Neuronal acetylcholine receptor; alpha3/beta2. Kind of assay: Inhibitory concentration against Nicotinic acetylcholine receptor alpha3-beta2. It is filed as protein-complex assay.
Assay [38] concerns the target T3, Neuronal acetylcholine receptor; alpha4/beta2. Kind of assay: Inhibitory concentration against Nicotinic acetylcholine receptor alpha4-beta2. It is filed as protein-complex assay.
In assay [39] the target is T2, Neuronal acetylcholine receptor; alpha3/beta4. Kind of assay: Inhibitory concentration against Nicotinic acetylcholine receptor alpha3-beta4. Format: protein-complex assay.
In assay [40] the target is T8, Neuronal acetylcholine receptor subunit alpha-7. Kind of assay: Inhibitory concentration against Nicotinic acetylcholine receptor alpha 7.

Where “and” joins values, the source holds several entries; their conditions need not be identical. Equal entries are not always repeated.

Sequence of Neuronal acetylcholine receptor subunit alpha-7 (Rattus norvegicus) (Q05941 whole entry): as above
T5 sequence (P17787 whole entry): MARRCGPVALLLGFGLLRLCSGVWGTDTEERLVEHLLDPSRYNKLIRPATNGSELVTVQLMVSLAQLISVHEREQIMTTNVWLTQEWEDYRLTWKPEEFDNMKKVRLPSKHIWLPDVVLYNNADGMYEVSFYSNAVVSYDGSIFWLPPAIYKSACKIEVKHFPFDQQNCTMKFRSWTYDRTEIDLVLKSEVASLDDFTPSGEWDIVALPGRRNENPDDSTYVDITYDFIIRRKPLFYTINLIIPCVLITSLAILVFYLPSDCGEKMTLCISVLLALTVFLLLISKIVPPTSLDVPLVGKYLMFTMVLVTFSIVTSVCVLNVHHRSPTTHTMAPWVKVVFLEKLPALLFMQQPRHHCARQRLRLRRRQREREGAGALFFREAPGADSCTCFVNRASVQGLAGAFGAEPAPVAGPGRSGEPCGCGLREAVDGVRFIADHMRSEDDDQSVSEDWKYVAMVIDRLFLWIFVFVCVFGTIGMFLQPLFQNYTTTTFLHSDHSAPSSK
T5 sequence (P32297 whole entry): as the sequence (P32297 whole entry) above
T1 sequence (P30926 whole entry): as the sequence (P30926 whole entry) above
T1 sequence (P43681 whole entry): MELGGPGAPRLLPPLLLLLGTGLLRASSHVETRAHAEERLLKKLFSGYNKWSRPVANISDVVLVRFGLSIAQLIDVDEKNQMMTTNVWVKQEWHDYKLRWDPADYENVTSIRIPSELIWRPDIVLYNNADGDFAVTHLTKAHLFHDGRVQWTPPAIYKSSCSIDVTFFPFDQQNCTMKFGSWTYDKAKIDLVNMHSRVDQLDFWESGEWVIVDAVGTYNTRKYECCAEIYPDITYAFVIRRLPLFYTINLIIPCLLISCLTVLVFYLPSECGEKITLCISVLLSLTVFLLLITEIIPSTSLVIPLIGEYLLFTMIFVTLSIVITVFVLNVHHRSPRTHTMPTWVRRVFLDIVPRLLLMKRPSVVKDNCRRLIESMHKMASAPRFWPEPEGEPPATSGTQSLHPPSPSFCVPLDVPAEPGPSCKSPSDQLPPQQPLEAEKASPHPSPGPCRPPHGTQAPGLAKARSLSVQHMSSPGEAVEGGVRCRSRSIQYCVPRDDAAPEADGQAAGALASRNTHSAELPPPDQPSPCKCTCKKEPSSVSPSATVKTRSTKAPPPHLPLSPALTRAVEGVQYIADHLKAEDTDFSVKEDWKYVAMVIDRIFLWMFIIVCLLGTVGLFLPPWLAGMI
T3 sequence (P17787 whole entry): as the sequence (P17787 whole entry) above
T3 sequence (P43681 whole entry): as the sequence (P43681 whole entry) above

Molecule `c1ccc(-c2cnc3c(c2)CC2(CN4CCC2CC4)O3)cc1` (configuration not stated) gave an Rmax in assay [1] of 85%. Also, the EC50 in assay [2], in [3], in assay [4], in [5] and in [6] was over 100 µM each time.
`Cc1cc([C@@H]2CCN2C)on1`: the Rmax stood at 55% in assay [7], 50% in assay [8], 50% in assay [9] and 119% in [10].
With `C[N+]1(C)CCN(c2ccccc2)CC1` [DIMETHYLPHENYLPIPERAZINIUM], the Rmax stood at 54% in assay [1]; 19% in assay [11]; 100% in assay [14]; 90% in assay [15]; 101% in [17]; 58% in [19]. The Rmax in assay [20] was 107%; in assay [21], 124%. Further, the EC50 in assay [12] came to 18 µM; in assay [13], 46 µM; in assay [16], 31 µM; in assay [18] it was 23 µM; in assay [22], 19 µM; in assay [23], 56 µM.
On to `CC(=O)OCC[N+](C)(C)C` [ACETYLCHOLINE], for which the Rmax in [24] is 97%; in assay [25] it was 150%; in [26], 172%; in assay [27] it was 100%; in assay [28], 100%. Besides, the EC50 in assay [12] was 68 µM; in assay [13] it was 20 µM; in assay [18], 83 µM; in assay [22] it was 203 µM.
As for `CN[C@@H](C)C/C=C/c1cncc(OC(C)C)c1` [ISPRONICLINE], the EC50 in [29] was over 100 µM; in [31], over 10 µM; in assay [2] it was over 10 µM; in assay [3], over 10 µM; in assay [33], over 100 µM. Also, the Rmax is 56% in assay [30]; 60% in assay [15]; 42% in [32]; 33% in [34]; 24% in [35].
Turning to `Clc1ccc(C2CC3CCC2N3)cn1` (configuration not stated), the Rmax in [1] was 97%; in assay [11], 99% and 85%; in assay [25], 163%; in assay [36], 115%; in assay [26] it was 117%.
For the molecule `C[C@H](NC(=O)[C@H](C)NC(=O)[C@H](CS)NC(=O)[C@H](C)NC(=O)[C@@H]1CCCN1C(=O)[C@H](Cc1c[nH]cn1)NC(=O)[C@H](CO)NC(=O)[C@H](CS)NC(=O)[C@H](CS)NC(=O)CNC(=O)CN)C(=O)N[C@@H](CC(N)=O)C(=O)N[C@@H](CC(N)=O)C(=O)N[C@@H](CCC(N)=O)C(=O)N[C@@H](CC(=O)O)C(=O)N[C@@H](Cc1ccc(O)cc1)C(=O)N[C@@H](CS)C(N)=O`, the 50% inhibitory concentration (IC50) in assay [37], in assay [38], in assay [39] and in assay [40] was 0.0003 µM throughout.

As a reminder, the EC50 is the concentration giving half of the maximal effect. Low values mean higher potency in that assay, high ones lower potency in that assay. What is called IC50 is the concentration needed to halve the response being measured. High values mean lower potency, low ones higher potency.
